Reference: patent US12139499B2, “Heteroaryl compounds for treating Huntington's disease” (PTC THERAPEUTICS, INC., priority 2018, dated 2024)
pIC50: −log10 of the molar value.

test system: Endogenous Huntingtin Protein; experiment: Endogenous Huntingtin Protein Assay (ELISA-based MSD electrochemiluminescence); format: cell-based; conditions: Table 1
Experimental: Compounds of Formula (I) or Formula (II) were tested using the Meso Scale Discovery (MSD) Assay provided in International Application No. PCT/US2016/066042, filed on Dec. 11, 2016 and claiming priority to U.S. Provisional Application 62/265,652 filed on Dec. 10, 2015, the entire contents of which are incorporated herein by reference.
The Endogenous Huntingtin Protein assay used in Example 1 was developed using the ELISA-based MSD electrochemiluminescence assay platform.
Endogenous Huntingtin Protein Assay
Meso Scale Discovery (MSD) 96-well or 384-well plates were coated overnight at 4° C. with MW1 (expanded polyglutamine) or MAB2166 monoclonal antibody (for capture) at a concentration of 1 μg/mL in PBS (30 μL per well). Plates were then washed three times with 300 μL wash buffer (0.05% Tween-20 in PBS) and blocked (100 μL blocking buffer; 5% BSA in PBS) for 4-5 hours at room temperature with rotational shaking and then washed three times with wash buffer.
Samples (25 μL) were transferred to the antibody-coated MSD plate and incubated overnight at 4° C. After removal of the lysates, the plate was washed three times with wash buffer, and 25 μL of #5656S (Cell signaling; rabbit monoclonal) secondary antibody (diluted to 0.25 μg/mL in 0.05% Tween-20 in blocking buffer) was added to each well and incubated with shaking for 1 Hour at room temperature. Following incubation with the secondary antibody, the wells were rinsed with wash buffer after which 25 μL of goat anti-rabbit SULFO TAG secondary detection antibody (required aspect of the MSD system) (diluted to 0.25 μg/mL in 0.05% Tween-20 in blocking buffer) was added to each well and incubated with shaking for 1 hour at room temperature. After rinsing three times with wash buffer, 150 μL of read buffer T with surfactant (MSD) were added to each empty well, and the plate was imaged on a SI 6000 imager (MSD) according to manufacturers' instructions provided for 96- or 384-well plates.

Compound	pIC50
5-{2-[(1,5-dimethyl-8-azabicyclo[3.2.1]oct-3-yl)(methyl)amino][1,3]thiazolo[5,4-d]pyrimidin-5-yl)-2-methyl-2H-indazole-7-carbonitrile [Compound 254]	≥ 7.00
Cn1cc2cc(-c3ccc4nc(C5=CCNCC5)sc4c3)ccc2n1 [Compound 1, 6-(2-methyl-2H-indazol-5-yl)-2-(1,2,3,6-tetrahydropyridin-4-yl)-1,3-benzothiazole]	6.30 to 7.00
Cn1cc2cc(-c3ccc4nc(C5CCNCC5)sc4c3)ccc2n1 [Compound 2, 6-(2-methyl-2H-indazol-5-yl)-2-(piperidin-4-yl)-1,3-benzothiazole]	6.30 to 7.00
CN1CC=C(c2nc3ccc(-c4ccc5nn(C)cc5c4)cc3s2)CC1 [Compound 3, 6-(2-methyl-2H-indazol-5-yl)-2-(1-methyl-1,2,3,6-tetrahydropyridin-4-yl)-1,3-benzothiazole]	6.00 to 6.30
Cn1cc2cc(-c3nc4ccc(C5=CCNCC5)cc4s3)ccc2n1 [Compound 4, 2-(2-methyl-2H-indazol-5-yl)-6-(1,2,3,6-tetrahydropyridin-4-yl)-1,3-benzothiazole]	6.30 to 7.00
Cn1cc2cc(-c3nc4ccc(C5CCNCC5)cc4s3)ccc2n1 [Compound 5, 2-(2-methyl-2H-indazol-5-yl)-6-(piperidin-4-yl)-1,3-benzothiazole]	6.00 to 6.30
CN1CC=C(c2ccc3nc(-c4ccc5nn(C)cc5c4)sc3c2)CC1 [Compound 6, 2-(2-methyl-2H-indazol-5-yl)-6-(1-methyl-1,2,3,6-tetrahydropyridin-4-yl)-1,3-benzothiazole]	5.52 to 6.00
Cn1cc2cc(-c3ccc4nc(N5CCNCC5)sc4c3)ccc2n1 [Compound 7, 6-(2-methyl-2H-indazol-5-yl)-2-(piperazin-1-yl)-1,3-benzothiazole]	5.52 to 6.00
CN(c1nc2ccc(-c3ccc4nn(C)cc4c3)cc2s1)C1CCNCC1 [Compound 8, N-methyl-6-(2-methyl-2H-indazol-5-yl)-N-(piperidin-4-yl)-1,3-benzothiazol-2-amine]	6.30 to 7.00
CN1CCC(c2nc3ccc(-c4ccc5nn(C)cc5c4)cc3s2)CC1 [Compound 9, 6-(2-methyl-2H-indazol-5-yl)-2-(1-methylpiperidin-4-yl)-1,3-benzothiazole]	5.52 to 6.00
CN1CCC(c2ccc3nc(-c4ccc5nn(C)cc5c4)sc3c2)CC1 [Compound 10, 2-(2-methyl-2H-indazol-5-yl)-6-(1-methylpiperidin-4-yl)-1,3-benzothiazole]	5.52 to 6.00
CN(c1ccc2nc(-c3ccc4nn(C)cc4c3)sc2c1)C1CCNCC1 [Compound 11, N-methyl-2-(2-methyl-2H-indazol-5-yl)-N-(piperidin-4-yl)-1,3-benzothiazol-6-amine]	5.52 to 6.00
CN(c1nc2ncc(-c3ccc4nn(C)cc4c3)cc2s1)C1CCNCC1 [Compound 12, N-methyl-6-(2-methyl-2H-indazol-5-yl)-N-(piperidin-4-yl)[1,3]thiazolo[4,5-b]pyridine-2-amine]	5.52 to 6.00
Cc1cc(-c2cnc3nc(N(C)C4CCNCC4)sc3c2)cc2cn(C)nc12 [Compound 13, 6-(2,7-dimethyl-2H-indazol-5-yl)-N-methyl-N-(piperidin-4-yl)[1,3]thiazolo[4,5-b]pyridin-2-amine]	6.00 to 6.30
Cc1cc(-c2cnc3nc(NC4CCNCC4)sc3c2)cc2cn(C)nc12 [Compound 14, 6-(2,7-dimethyl-2H-indazol-5-yl)-N-(piperidin-4-yl)[1,3]thiazolo[4,5-b]pyridin-2-amine]	5.52 to 6.00
Cn1cc2cc(-c3cnc4nc(NC5CCNCC5)sc4c3)ccc2n1 [Compound 15, 6-(2-methyl-2H-indazol-5-yl)-N-(piperidin-4-yl)[1,3]thiazolo[4,5-b]pyridin-2-amine]	5.52 to 6.00
CN(c1nc2ncc(-c3ccc4nn(C)cc4c3)cc2s1)C1CC(C)(C)NC(C)(C)C1 [Compound 16, N-methyl-6-(2-methyl-2H-indazol-5-yl)-N-(2,2,6,6-tetramethylpiperidin-4-yl)[1,3]thiazolo[4,5-b]pyridin-2-amine]	6.00 to 6.30
Cc1cc(-c2cnc3nc(N(C)C4CC(C)(C)NC(C)(C)C4)sc3c2)cc2cn(C)nc12 [Compound 17, 6-(2,7-dimethyl-2H-indazol-5-yl)-N-methyl-N-(2,2,6,6-tetramethylpiperidin-4-yl)[1,3]thiazolo[4,5-b]pyridin-2-amine]	6.30 to 7.00

Compound	pIC50
Cc1cc(-c2ccc3nc(C4=CCNCC4)sc3c2)cc2cn(C)nc12 [Compound 18, 6-(2,7-dimethyl-2H-indazol-5-yl)-2-(1,2,3,6-tetrahydropyridin-4-yl)-1,3-benzothiazole]	6.30 to 7.00
Cn1cc2cc(-c3nc4ncc(C5=CCNCC5)cc4s3)ccc2n1 [Compound 19, 2-(2-methyl-2H-indazol-5-yl)-6-(1,2,3,6-tetrahydropyridin-4-yl)[1,3]thiazolo[4,5-b]pyridine]	6.30 to 7.00
CN(c1nc2ccc(-c3ccc4nn(C)cc4c3)cc2s1)C1CC(C)(C)NC(C)(C)C1 [Compound 20, N-methyl-6-(2-methyl-2H-indazol-5-yl)-N-(2,2,6,6-tetramethylpiperidin-4-yl)-1,3-benzothiazol-2-amine]	≥ 7.00
Cc1cc(-c2ccc3nc(N(C)C4CC(C)(C)NC(C)(C)C4)sc3c2)cc2cn(C)nc12 [Compound 21, 6-(2,7-dimethyl-2H-indazol-5-yl)-N-methyl-N-(2,2,6,6-tetramethylpiperidin-4-yl)-1,3-benzothiazol-2-amine]	6.30 to 7.00
Cc1cc(-c2ccc3nc(C4CCNCC4)sc3c2)cc2cn(C)nc12 [Compound 22, 6-(2,7-dimethyl-2H-indazol-5-yl)-2-(piperidin-4-yl)-1,3-benzothiazole]	≥ 7.00
CN(c1nc2c(F)cc(-c3ccc4nn(C)cc4c3)cc2s1)C1CC(C)(C)NC(C)(C)C1 [Compound 23, 4-fluoro-N-methyl-6-(2-methyl-2H-indazol-5-yl)-N-(2,2,6,6-tetramethylpiperidin-4-yl)-1,3-benzothiazol-2-amine]	≥ 7.00
Cc1cc(-c2cc(F)c3nc(N(C)C4CC(C)(C)NC(C)(C)C4)sc3c2)cc2cn(C)nc12 [Compound 24, 6-(2,7-dimethyl-2H-indazol-5-yl)-4-fluoro-N-methyl-N-(2,2,6,6-tetramethylpiperidin-4-yl)-1,3-benzothiazol-2-amine]	≥ 7.00
CN(c1nc2ccc(-c3ccc4nn(C)cc4c3)nc2s1)C1CC(C)(C)NC(C)(C)C1 [Compound 25, N-methyl-5-(2-methyl-2H-indazol-5-yl)-N-(2,2,6,6-tetramethylpiperidin-4-yl)[1,3]thiazolo[5,4-b]pyridin-2-amine]	6.30 to 7.00
CN(c1nc2ccc(-c3ccc4nn(C)cc4c3)nc2s1)C1CCNCC1 [Compound 26, N-methyl-5-(2-methyl-2H-indazol-5-yl)-N-(piperidin-4-yl)[1,3]thiazolo[5,4-b]pyridin-2-amine]	6.00 to 6.30
CN(c1nc2cnc(-c3ccc4nn(C)cc4c3)cc2s1)C1CCNCC1 [Compound 27, N-methyl-6-(2-methyl-2H-indazol-5-yl)-N-(piperidin-4-yl)[1,3]thiazolo[4,5-c]pyridin-2-amine]	6.00 to 6.30
CN(C)C1CCN(c2nc3ccc(-c4ccc5nn(C)cc5c4)cc3s2)CC1 [Compound 28, N,N-dimethyl-1-[6-(2-methyl-2H-indazol-5-yl)-1,3-benzothiazol-2-yl]piperidin-4-amine]	5.52 to 6.00
Cn1cc2cc(-c3ccc4nc(N5CCC(N)CC5)sc4c3)ccc2n1 [Compound 29, 1-[6-(2-methyl-2H-indazol-5-yl)-1,3-benzothiazol-2-yl]piperidin-4-amine]	5.52 to 6.00
Cc1cc(-c2cc3sc(N(C)C4CCNCC4)nc3cn2)cc2cn(C)nc12 [Compound 30, 6-(2,7-dimethyl-2H-indazol-5-yl)-N-methyl-N-(piperidin-4-yl)[1,3]thiazolo[4,5-c]pyridin-2-amine]	6.30 to 7.00
Cc1cc(-c2cc3sc(N(C)C4CC(C)(C)NC(C)(C)C4)nc3cn2)cc2cn(C)nc12 [Compound 31, 6-(2,7-dimethyl-2H-indazol-5-yl)-N-methyl-N-(2,2,6,6-tetramethylpiperidin-4-yl)[1,3]thiazolo[4,5-c]pyridin-2-amine]	≥ 7.00
CN(c1nc2cnc(-c3ccc4nn(C)cc4c3)cc2s1)C1CC(C)(C)NC(C)(C)C1 [Compound 32, N-methyl-6-(2-methyl-2H-indazol-5-yl)-N-(2,2,6,6-tetramethylpiperidin-4-yl)[1,3]thiazolo[4,5-c]pyridin-2-amine]	≥ 7.00
Cc1cn2cc(-c3ccc4nc(N(C)C5CC(C)(C)NC(C)(C)C5)sc4c3)cc(C)c2n1 [Compound 33, 6-(2,8-dimethylimidazo[1,2-a]pyridin-6-yl)-N-methyl-N-(2,2,6,6-tetramethylpiperidin-4-yl)-1,3-benzothiazol-2-amine]	≥ 7.00
CN(c1nc2ccc(-c3ccc4[nH]ncc4c3)cc2s1)C1CC(C)(C)NC(C)(C)C1 [Compound 34, 6-(1H-indazol-5-yl)-N-methyl-N-(2,2,6,6-tetramethylpiperidin-4-yl)-1,3-benzothiazol-2-amine]	6.30 to 7.00
